Experimental data reported in PMC9951879, “Synthesis of New Shogaol Analogues as NRF2 Activators and Evaluation of Their Anti-Inflammatory Activity, Modes of Action and Metabolic Stability” (Antioxidants, 2023).

Legend:
[1] = Vybrant MTT cytotoxicity assay in BV-2 cells together with LPSEc; type: cell-based; conditions: mouse, BV-2 microglial cells, BV-2 cells plus LPSEc 200 ng/mL, read-out: cell viability
Method: The safe dose of the test compounds on murine hepatoma (Hepa1c1c-7) and mouse microglial cells (BV-2) was assessed by determining their cytotoxicity using Vybrant® MTT Cell Proliferation Assay Kit (Thermo Fisher Scientific, USA) following the manufacturer’s protocol. In the case of BV-2 cells, the cytotoxicity of the test compounds was assessed together with E. coli lipopolysaccharide (LPSEc), 200 ng/mL. The cell density was 5 × 10^5 cells/well (in a 96-well plate), and they were preincubated for 24 h. The test compounds (10, 5, 2.5, 1.25, and 0.625 μM) were then added to each well (in triplicate) and incubated for another 24 h. The solution’s absorbance was measured using Spectramax (Molecular Devices, San Jose, California, USA) M3 microplate reader. The cell viability was calculated using the following formula, and the results are presented as mean ± SD. Percent cell viability %=Atreated cells−Ablank /Auntreated cells−Ablank×100%

[2] = tested on: GSTM2; assay: qPCR gene expression in Hepa1c1c-7 cells: GSTM2; type: cell-based, mouse; conditions: 1 μM, 48 h, Hepa-1c1c7 cells
Method: (§1) Hepa1c1c-7 cells were treated with STCs (1 μM) for 48 h, and the total RNA was isolated using QIAzol®lysis reagent (Qiagen, Germany). Next, cDNA was synthesised using the ReverTra Ace® qPCR RT Master Mix Kit (Toyobo Research Reagents, Osaka, Japan). Quantitative PCR was performed using THUNDERBIRD^TM Next SYBR® qPCR Mix (Toyobo Research Reagents, Osaka, Japan) in CFX96 Touch Real-Time PCR Detection System (Bio-Rad Laboratories, San Jose, CA, USA). The genes tested and the respective primers (purchased from Integrated DNA Technologies, Coralville, IA, USA) used in the study are shown in Table 1. β-actin was used as a reference gene for the normalisation of target gene expression. The 2^−ΔΔCt method was used to measure the relative expression of target genes.

[3] = tested on: PRDX1; assay: qPCR gene expression in Hepa1c1c-7 cells: PRDX1; type: cell-based, mouse; conditions: 1 μM, 48 h, Hepa-1c1c7 cells
Method: as §1

Compound | viability at 24 h, 2.5 µM ([1]; concentrations ≥ 2.5 μM) [%] | viability at 24 h, 5 µM ([1]; concentrations ≥ 5 μM) [%] | GSTM2 gene expression foldchange (compared to control) [2] | PRDX1 gene expression foldchange (compared to control) [3]
COc1cc(CCC(=O)/C=C/c2ccc([N+](=O)[O-])s2)ccc1O [STC8, (E)-5-(4-Hydroxy-3-methoxyphenyl)-1-(5-nitrothiophen-2-yl)pent-1-en-3-one] | < 90 | – | – | –
CCCCC/C=C/C(=O)CCc1ccc(O)c(OC)c1 [6-shogaol, reference compound] | – | < 90 | 1.19 ± 0.05 | 1.37 ± 0.07
COc1cc(CCC(=O)/C=C/c2cc(-c3ccccc3)cs2)ccc1O [STC5, (E)-5-(4-Hydroxy-3-methoxyphenyl)-1-(4-phenylthiophen-2-yl)pent-1-en-3-one] | – | – | 3.19 ± 0.05 | 3.04 ± 0.09
